Laboratory results published in ChEMBL document CHEMBL1148633, “Inhibition of carbonic anhydrase-II by sulfamate and sulfamide groups: an investigation involving direct thermodynamic binding measurements” (J Med Chem, 2006).

How the values were obtained:
Carbonic anhydrase 2 [1] = molecular target: T1, Carbonic anhydrase 2 (Homo sapiens, UniProt P00918)
Description: Inhibition of human CA2 by carbon dioxide hydration

Carbonic anhydrase 2 [2] = molecular target: T1, Carbonic anhydrase 2; test: Binding affinity to human CA2 in presence of sodium sulfate and ANS at pH 7.5 by ThermoFluor assay
Carbonic anhydrase 2 [3] = molecular target: T1, Carbonic anhydrase 2; test: Inhibition of human CA2 by 4-nitrophenyl acetate hydrolysis
Carbonic anhydrase 2 [4] = molecular target: T1, Carbonic anhydrase 2; test: Binding affinity to human CA2 at pH 7.4 by ThermoFluor assay

Ki (Carbonic anhydrase 2 [1]) [µM] | Kd (Carbonic anhydrase 2 [2]) [µM] | Ki (Carbonic anhydrase 2 [3]) [µM] | Kd (Carbonic anhydrase 2 [4]) [µM] | SMILES
14.4 | 2.65 | 18.8 | 5 | COc1ccc(NS(N)(=O)=O)cc1
0.892 | 1 | 1.74 | 1.5 | NS(=O)(=O)Nc1ccc([N+](=O)[O-])cc1
